Test results reported in patent US4006241A, “Certain halothien-2-yl 5-nitrothiazol-2-yl ketones and fungicidal composition” (Schering Aktiengesellschaft, priority 1973, dated 1977).
Converted amounts (≈) assume the structure as drawn.

Legend:
Type in all cases: cell-based
Trichophyton rubrum = assay: minimum inhibitory concentration (MIC) against fungi, Trich. rubr.
Text: (§1) As examples of the effectiveness of the compounds of general Formula III against fungi, Table I indicates the minimum inhibitory concentrations (MIC) of several compounds. The comparison compounds are the known 2-Dimethylamino-6-(β-diethylaminoethoxy)-benzothiazole dihydrochloride and two 5-nitrothiazole derivatives substituted in the 2-position, which are known in the literature (J. Med. Chem. 12 [1969] 303).

Candida albicans = assay: minimum inhibitory concentration (MIC) against fungi, Cand. alb.
Text: as §1

[1] = tested on: Trichophyton mentagrophytes; assay: minimum inhibitory concentration (MIC) against fungi, Trich. ment.
Text: as §1

| Structure (SMILES) | MIC (Trichophyton rubrum) | MIC (Candida albicans) | MIC [1] |
| --- | --- | --- | --- |
| Cc1cc(C(=O)c2ncc([N+](=O)[O-])s2)c(C)c(C)c1O | 3.1 µg/mL (≈ 10.6 µM) | 1.6 µg/mL (≈ 5.47 µM) | 6.3 µg/mL (≈ 21.6 µM) |
| Cc1ccc(C(=O)c2ncc([N+](=O)[O-])s2)c(F)c1C | 3.1 µg/mL (≈ 11.1 µM) | 1.6 µg/mL (≈ 5.71 µM) | 3.1 µg/mL (≈ 11.1 µM) |
| O=C(c1ccc(Br)s1)c1ncc([N+](=O)[O-])s1 | 1.6 µg/mL (≈ 5.01 µM) | 0.4 µg/mL (≈ 1.25 µM) | 1.6 µg/mL (≈ 5.01 µM) |
| CC(=O)NN=Cc1ncc([N+](=O)[O-])s1 | 12.5 µg/mL (≈ 58.4 µM) | 25 µg/mL (≈ 117 µM) | 12.5 µg/mL (≈ 58.4 µM) |

More lines, now with the values ahead:

| MIC (Trichophyton rubrum) | MIC (Candida albicans) | MIC [1] | Structure (SMILES) |
| --- | --- | --- | --- |
| 50 µg/mL (≈ 249 µM) | 50 µg/mL (≈ 249 µM) | 50 µg/mL (≈ 249 µM) | CCOC(=N)c1ncc([N+](=O)[O-])s1 |
| 50 µg/mL | 300 µg/mL | 50 µg/mL | CCN(CC)CCOc1ccc2nc(N(C)C)sc2c1.Cl.Cl [2-Dimethylamino-6-(β-diethylaminoethoxy)-benzothiazole dihydrochloride] |
